Reference: PubChem BioAssay AID248 (DTP/NCI, 2004)
“And” between values parts separate entries of the source, which are not always exact repeats. Identical values can stand only once. Toxic doses and inconclusive results are not listed. Cut-off read from the data, not from the text of the source: active = T/C of 150% or more; inactive = T/C below 125%.

System: L1210 leukemia ip in BDF1 mice, survival T/C
Experiment: NCI In Vivo Anticancer Drug Screen. Data for tumor model L1210 Leukemia (intraperitoneal) in B6D2F1 (BDF1) mice
Details: endpoint: mean survival time, higher = longer survival
Method in brief: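 Value reflects the ratio of survival in compound-treated mice to survival in vehicle-treated controls, with both groups carrying the same transplanted tumor.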

[1] = dose: 100.0 mg/kg/injection, schedule: Q01DX009 (ip), vehicle: saline with Tween-80
[2] = dose: 200.0 mg/kg/injection, schedule: Q01DX009 (ip), vehicle: saline with Tween-80
[3] = dose: 100.0 mg/kg/injection, schedule: Q01DX001 (ip), vehicle: carboxymethylcellulose (CMC)
[4] = dose: 100.0 mg/kg/injection, schedule: Q01DX001 (ip), vehicle: saline
[5] = dose: 200.0 mg/kg/injection, schedule: Q01DX001 (ip), vehicle: carboxymethylcellulose (CMC)
[6] = dose: 200.0 mg/kg/injection, schedule: Q01DX001 (ip), vehicle: saline
[7] = dose: 400.0 mg/kg/injection, schedule: Q01DX001 (ip), vehicle: carboxymethylcellulose (CMC)
[8] = dose: 50.0 mg/kg/injection, schedule: Q01DX009 (ip), vehicle: saline
[9] = dose: 100.0 mg/kg/injection, schedule: Q01DX009 (ip), vehicle: saline
[10] = dose: 100.0 mg/kg/injection, schedule: Q04DX003 (ip), vehicle: saline
[11] = dose: 200.0 mg/kg/injection, schedule: Q01DX009 (ip), vehicle: saline
[12] = dose: 200.0 mg/kg/injection, schedule: Q04DX003 (ip), vehicle: saline
[13] = dose: 400.0 mg/kg/injection, schedule: Q01DX009 (ip), vehicle: saline
[14] = dose: 400.0 mg/kg/injection, schedule: Q04DX003 (ip), vehicle: saline
[15] = dose: 100.0 mg/kg/injection, schedule: Q01DX009 (ip), vehicle: Klucel (hydroxypropylcellulose) (HPC)
[16] = dose: 200.0 mg/kg/injection, schedule: Q01DX009 (ip), vehicle: Klucel (hydroxypropylcellulose) (HPC)
[17] = dose: 400.0 mg/kg/injection, schedule: Q01DX009 (ip), vehicle: Klucel (hydroxypropylcellulose) (HPC)
[18] = dose: 200.0 mg/kg/injection, schedule: Q04DX003 (ip), vehicle: Klucel (hydroxypropylcellulose) (HPC)
[19] = dose: 400.0 mg/kg/injection, schedule: Q04DX003 (ip), vehicle: Klucel (hydroxypropylcellulose) (HPC)
[20] = dose: 100.0 mg/kg/injection, schedule: Q04DX003 (ip), vehicle: saline with Tween-80
[21] = dose: 200.0 mg/kg/injection, schedule: Q04DX003 (ip), vehicle: saline with Tween-80
[22] = dose: 400.0 mg/kg/injection, schedule: Q04DX003 (ip), vehicle: saline with Tween-80
[23] = dose: 100.0 mg/kg/injection, schedule: Q04DX003 (ip), vehicle: Klucel (hydroxypropylcellulose) (HPC)

Measured: T/C

CC1CCCCN1C(=O)Nc1ccc(Cl)cc1Cl (stereo unspecified)
inactive: dose: 50.0 mg/kg/injection, schedule: Q01DX009 (ip), vehicle: saline with Tween-80 91 % of control | [1] 102 % of control | [2] 98 % of control

Fc1c(F)c(F)c(S/C=C/c2ccccc2)c(F)c1F
inactive: dose: 100.0 mg/kg/injection, schedule: Q01DX001 (ip), vehicle: Klucel (hydroxypropylcellulose) (HPC) 96 % of control | dose: 200.0 mg/kg/injection, schedule: Q01DX001 (ip), vehicle: Klucel (hydroxypropylcellulose) (HPC) 118 % of control | dose: 400.0 mg/kg/injection, schedule: Q01DX001 (ip), vehicle: Klucel (hydroxypropylcellulose) (HPC) 105 % of control

CC(=O)OCC1OC(n2c(Br)nc3c(N)ncnc32)C(OC(C)=O)C1OC(C)=O (stereo unspecified)
inactive: dose: 50.0 mg/kg/injection, schedule: Q01DX001 (ip), vehicle: saline 98 % of control | [3] 98 % of control | [4] 95 % of control | dose: 100.0 mg/kg/injection, schedule: Q01DX005 (ip), vehicle: saline 89 % of control | [5] 95 % of control | [6] 104 % of control | dose: 200.0 mg/kg/injection, schedule: Q01DX005 (ip), vehicle: saline 93 % of control | [7] 101 % of control

COc1cc([N+](=O)[O-])c(C)cc1NCc1ccc(OC)c(OC)c1
inactive: [8] 96 % of control | [9] 94 % of control | [10] 97 % of control | [11] 91 % of control | [12] 98 % of control | [13] 94 % of control | [14] 89 % of control

NC(=S)N/N=C\c1c[nH]c2nccnc12
inactive: dose: 25.0 mg/kg/injection, schedule: Q01DX009 (ip), vehicle: water 108 % of control | dose: 50.0 mg/kg/injection, schedule: Q01DX009 (ip), vehicle: water 97 % of control | dose: 100.0 mg/kg/injection, schedule: Q01DX009 (ip), vehicle: water 102 % of control | dose: 200.0 mg/kg/injection, schedule: Q01DX009 (ip), vehicle: water 90 % of control | dose: 400.0 mg/kg/injection, schedule: Q01DX009 (ip), vehicle: water 88 % of control

O=C(COCC(=O)N/N=C/c1cccc([N+](=O)[O-])c1)N/N=C/c1cccc([N+](=O)[O-])c1
inactive: [15] 92 % of control | [16] 95 % of control | [17] 106 % of control

COc1cc(OC)c(OC)cc1/C=C\c1ccnc2ccccc12
inactive: [3] 105 % of control | [15] 98 % of control | [5] 100 % of control | [16] 108 % of control | [18] 108 % of control | [7] 109 % of control | [17] 114 % of control | [19] 108 % of control | dose: 800.0 mg/kg/injection, schedule: Q01DX009 (ip), vehicle: Klucel (hydroxypropylcellulose) (HPC) 112 % of control | dose: 800.0 mg/kg/injection, schedule: Q04DX003 (ip), vehicle: Klucel (hydroxypropylcellulose) (HPC) 110 % of control | dose: 1600.0 mg/kg/injection, schedule: Q04DX003 (ip), vehicle: Klucel (hydroxypropylcellulose) (HPC) 108 % of control

COc1cccc(OC)c1OC(=O)Nc1ccccc1F
inactive: [15] 105 % of control | [16] 106 % of control | [17] 106 % of control

CC(=O)C(C(C)=O)c1cc(NS(=O)(=O)c2ccccc2)ccc1O
inactive: dose: 100.0 mg/kg/injection, schedule: Q01DX001 (ip), vehicle: saline with Tween-80 100 % of control | dose: 200.0 mg/kg/injection, schedule: Q01DX001 (ip), vehicle: saline with Tween-80 104 % of control | dose: 400.0 mg/kg/injection, schedule: Q01DX001 (ip), vehicle: saline with Tween-80 89 % of control

CCCC[S][Hg][I]
inactive: dose: 3.12 mg/kg/injection, schedule: Q01DX009 (ip), vehicle: Klucel (hydroxypropylcellulose) (HPC) 98 % of control | dose: 6.25 mg/kg/injection, schedule: Q01DX009 (ip), vehicle: Klucel (hydroxypropylcellulose) (HPC) 98 % of control | dose: 12.5 mg/kg/injection, schedule: Q01DX009 (ip), vehicle: Klucel (hydroxypropylcellulose) (HPC) 110 % of control

O=C(O)c1ccccc1C(=O)NCCCc1ccccc1
inactive: dose: 100.0 mg/kg/injection, schedule: Q01DX001 (ip), vehicle: other 98 % of control | dose: 200.0 mg/kg/injection, schedule: Q01DX001 (ip), vehicle: other 98 % of control | dose: 400.0 mg/kg/injection, schedule: Q01DX001 (ip), vehicle: other 96 % of control

CCCCCCCCCSCC
inactive: [20] 102 % of control | [21] 96 % of control | [22] 102 % of control

CCCCCCCC[Si](CCCCCCCC)CCCCCCCC
inactive: dose: 100.0 mg/kg/injection, schedule: Q04DX003 (ip), vehicle: acetone 95 % of control | dose: 200.0 mg/kg/injection, schedule: Q04DX003 (ip), vehicle: acetone 91 % of control | dose: 400.0 mg/kg/injection, schedule: Q04DX003 (ip), vehicle: acetone 98 % of control

CC(=O)NCCc1ccc(S(=O)(=O)F)cc1
inactive: [1] 91 % of control | [2] 102 % of control

O=C(O)C1CCC[N-]C1.O=C(O)C1CCC[N-]C1.O=C(O)C1CCC[N-]C1.O=C(O)C1CCC[N-]C1.[Cl][Rh][Cl] (stereo unspecified)
inactive: [9] 104 % of control | [10] 96 % of control | [11] 104 % of control | [12] 102 % of control | [13] 90 % of control | [14] 96 % of control

C(/C=C/c1ccccc1)=Nc1ccc(CCc2ccc(N=C/C=C/c3ccccc3)cc2)cc1
inactive: [20] 91 % of control | [21] 92 % of control | [22] 92 % of control

Cc1ccccc1Nc1n[nH]c(=O)n1-c1ccccc1C
inactive: dose: 100.0 mg/kg/injection, schedule: Q04DX003 (ip), vehicle: carboxymethylcellulose (CMC) 98 % of control | dose: 200.0 mg/kg/injection, schedule: Q04DX003 (ip), vehicle: carboxymethylcellulose (CMC) 90 % of control | dose: 400.0 mg/kg/injection, schedule: Q04DX003 (ip), vehicle: carboxymethylcellulose (CMC) 106 % of control

CCCNC(=S)NC
inactive: [23] 90 % of control | [18] 95 % of control | [19] 109 % of control

Clc1ccc([S][Pb]([c]2ccccc2)([c]2ccccc2)[c]2ccccc2)cc1
inactive: dose: 100.0 mg/kg/injection, schedule: Q04DX002 (ip), vehicle: gum acacia 88 % of control | dose: 200.0 mg/kg/injection, schedule: Q04DX002 (ip), vehicle: gum acacia 91 % of control

O=C1C(=O)c2ccccc2C=C1Br
inactive: [23] 94 % of control | [18] 95 % of control

O=CNC(CSSCC(NC=O)C(=O)O)C(=O)O (stereo unspecified)
inactive: [20] 101 % of control | [21] 103 % of control | [22] 90 % of control

CC1=CC2=C(C(=O)C1=O)C(C)CCC2C(C)C (stereo unspecified)
inactive: [4] 98 % of control | [6] 94 % of control

CCCC(C)NNC(C)CCC (stereo unspecified)
inactive: dose: 75.0 mg/kg/injection, schedule: Q01DX001 (ip), vehicle: acetone 96 % of control | dose: 75.0 mg/kg/injection, schedule: Q01DX001 (ip), vehicle: other 114 % of control | dose: 150.0 mg/kg/injection, schedule: Q01DX001 (ip), vehicle: acetone 101 % of control

CNC/C=C/CNC
inactive: dose: 25.0 mg/kg/injection, schedule: Q01DX009 (ip), vehicle: saline 97 % of control | dose: 25.0 mg/kg/injection, schedule: Q04DX003 (ip), vehicle: saline 102 % of control | [8] 90 % of control | dose: 50.0 mg/kg/injection, schedule: Q04DX003 (ip), vehicle: saline 93 % of control | [9] 98 % of control | [10] 98 % of control and 99 % of control

O=C1C=CC(=O)N1c1cccc2c(N3C(=O)C=CC3=O)cccc12
inactive: dose: 11.1 mg/kg/injection, schedule: Q01DX Z (ip), vehicle: methylcellulose (MC) 89 % of control | dose: 16.6 mg/kg/injection, schedule: Q01DX Z (ip), vehicle: methylcellulose (MC) 95 % of control | dose: 25.0 mg/kg/injection, schedule: Q01DX Z (ip), vehicle: methylcellulose (MC) 104 % of control
